Patent publication EP1166781A1, “PROTEASOME INHIBITORS” (KYOWA HAKKO KOGYO CO., LTD., priority 1999, dated 2000)

target: T1, proteasome (Homo sapiens, UniProt P28074); assay: Proteasome inhibitory activity (Suc-Leu-Leu-Val-Tyr-AMC cleavage, crude enzyme solution from HeLa S3 cell extract); type: biochemical; conditions: crude proteasome fraction (>500K) from HeLa S3 cells; substrate Suc-Leu-Leu-Val-Tyr-AMC; 37°C for one hour; read-out: IC50
T1 construct: The obtained high molecular fraction (molecular weight >500K) was used as an enzyme solution for the detection of proteasome activity; endogenous in cells; host or cells: HeLa S3 cells: homogenate, 100,000G supernatant, >500K fraction from Centricon-500
Description: 1 x 10^9 of HeLa S3 cells were dispersed in 5 ml of the buffer A [20 mmol/L of Tris (pH 7.5), 2 mmol/L of ATP, 5 mmol/L of MgCl2, 1 mmol/L of dithiothreitol (DTT)], and then homogenized at 4°C. The supernatant centrifuged at 100,000G was concentrated by a Centricon-500 (supplied by Amicon) and diluted with 2.5 ml of the buffer B [25 mmol/L of Tris/HCl (pH 7.5), 2 mmol/L of ATP, 1 mmol/L of DTT, 20% of glycerol]. The obtained high molecular fraction (molecular weight >500K) was used as an enzyme solution for the detection of proteasome activity. Suc-Leu-Leu-Val-Tyr-AMC [Suc: Succinyl; AMC: Aminomethylcoumarin](supplied by Peptide Institute, Inc.) was used as a substrate for measuring inhibitory activity for proteasome (stored as a 2 mmol/L DMSO solution). The reaction was carried out by the following method using 96-well microtiter plates. To 96 µl of a reaction buffer [20 mmol/L of Tris/HCl (pH 8), 0.5 mmol/L of EDTA, 0.04% of sodium dodecylsulfate (SDS)] were added 1 µl of a drug solution (DMSO) and 2 µl of an enzyme solution followed by adding 1 µl of a substrate solution thereto, and then the mixture was incubated at 37°C for one hour. […]

| IC50 | SMILES |
| --- | --- |
| 12 nM | CCC(C)C1C(=O)OC1C(=O)NC1CC1CC(NC(=O)C(C)NC(=O)OC(C)(C)C)C(=O)OCC(=O)c1ccccc1 (stereo not shown) [Compound 18] |
| 6.2 nM | CCC(C)C1C(=O)OC1C(=O)NC1CC1CC(NC(=O)C(C)NC(=O)OC(C)(C)C)C(=O)NCc1ccccc1 (stereo not shown) [Compound 19] |
| 5 nM | CCC(C)C1C(=O)OC1C(=O)NC1CC1CC(NC(=O)C(C)NC(=O)OCc1ccccc1)C(=O)OCc1ccccc1 (stereo not shown) [Compound 28] |
| 5 nM | CCC(C)C1C(=O)OC1C(=O)NC1CC1CC(NC(=O)C(C)NC(=O)OCc1ccc(Br)cc1)C(=O)OCc1ccccc1 (stereo not shown) [Compound 29] |
| 4 nM | CCC(C)C1C(=O)OC1C(=O)NC1CC1CC(NC(=O)C(C)NC(=O)NCc1ccccc1)C(=O)OCc1ccccc1 (stereo not shown) [Compound 30] |
| 11 nM | CCC(C)C1C(=O)OC1C(=O)NC1CC1CC(NC(=O)C(C)NC(=O)NC(C)C)C(=O)OCc1ccccc1 (stereo not shown) [Compound 31] |
| 5 nM | CCC(C)C1C(=O)OC1C(=O)NC1CC1CC(NC(=O)C(C)NC(=S)NCc1ccccc1)C(=O)OCc1ccccc1 (stereo not shown) [Compound 32] |
| 15 nM | CCC(C)C1C(=O)OC1C(=O)NC1CC1CC(NC(=O)C(C)NC(=O)c1ccccc1)C(=O)OCc1ccccc1 (stereo not shown) [Compound 33] |
| 38 nM | CCC(C)C1C(=O)OC1C(=O)NC1CC1CC(NC(=O)C(C)NC=O)C(=O)OCc1ccccc1 (stereo not shown) [Compound 34] |
| 27 nM | CCC(C)C1C(=O)OC1C(=O)NC1CC1CC(NC(=O)C(C)NC(C)=O)C(=O)OCc1ccccc1 (stereo not shown) [Compound 35] |
| 21 nM | CCC(C)C1C(=O)OC1C(=O)NC1CC1CC(NC(=O)C(C)NC(=O)c1cnccn1)C(=O)OCc1ccccc1 (stereo not shown) [Compound 36] |
| 6 nM | CCC(C)C1C(=O)OC1C(=O)NC1CC1CC(NC(=O)C(C)NC(=O)CO[Si](C)(C)C(C)(C)C)C(=O)OCc1ccccc1 (stereo not shown) [Compound 37] |

Further lines, the compound ahead of its results:

| SMILES | IC50 |
| --- | --- |
| CCC(C)C1C(=O)OC1C(=O)NC1CC1CC(NC(=O)C(C)N)C(=O)NCc1ccccc1 (stereo not shown) [Compound 20] | 11 nM |
| CCC(C)C1C(=O)OC1C(=O)NC1CC1CC(NC(=O)C(C)N)C(=O)NCc1cccc2ccccc12 (stereo not shown) [Compound 22] | 12 nM |
| CCC(C)C1C(=O)OC1C(=O)NC1CC1CC(NC(=O)C(C)NC(=O)OC(C)(C)C)C(=O)N1CCOCC1 (stereo not shown) [Compound 26] | 13 nM |
| CC(C)CC1C(=O)OC1C(=O)NCCCCC(NC(=O)OC(C)(C)C)C(=O)OCc1ccccc1 (stereo not shown) [Compound 48] | 50 nM |
| CC(C)CC1C(=O)OC1C(=O)NCCCCC(NC(=O)C(C)NC(=O)OC(C)(C)C)C(=O)OCc1ccccc1 (stereo not shown) [Compound 49] | 30 nM |
| CC(C)CC1C(=O)OC1C(=O)NCCCCCNC(=O)C(C)NC(=O)OC(C)(C)C (stereo not shown) [Compound 53] | 250 nM |
| CC(C)CC1C(=O)OC1C(=O)NCCCCCNC(=O)C1C(OCc2ccccc2)CCN1C(=O)OC(C)(C)C (stereo not shown) [Compound 54] | 47 nM |
| CC(C)CC1C(=O)OC1C(=O)NCCCCCC(=O)OCc1ccccc1 (stereo not shown) [Compound 55] | 77 nM |
| CC(C)CC1C(=O)OC1C(=O)NCCCC(NC(=O)OC(C)(C)C)C(=O)OCc1ccccc1 (stereo not shown) [Compound 58] | 26 nM |
| CC(C)C[C@@H]1C(=O)O[C@H]1C(=O)NCCC[C@H](NC(=O)[C@H](C)NC(=O)OC(C)(C)C)C(=O)OCc1ccccc1 [Compound 59] | 33 nM |
| CC(C)CC1C(=O)OC1C(=O)NCCCC(NC(=O)C(C)N)C(=O)OCc1ccccc1 (stereo not shown) [Compound 60] | 40 nM |
| CC(C)=C[C@@H]1C(=O)O[C@H]1C(=O)NCCCC[C@H](NC(=O)[C@H](C)NC(=O)OC(C)(C)C)C(=O)NCc1cccc2ccccc12 [Compound 74] | 3 nM |
| CC(C)CC1C(=O)OC1C(=O)NCCCCC(NC(=O)C(C)NC(=O)OC(C)(C)C)C(=O)NCc1cccc2ccccc12 (stereo not shown) [Compound 75] | 1 nM |
| CC(C)C[C@@H]1C(=O)O[C@H]1C(=O)Nc1cc(C[C@H](NC(=O)OC(C)(C)C)C(=O)OCc2ccccc2)ccc1OCc1ccccc1 [Compound 82] | 100 nM |

system: Human colon cancer, WiDr cells; assay: Antiproliferative activity in WiDr cells (MTT, 72 hours); type: cell-based; conditions: not given
Description: Human colon cancer, WiDr cells suspended in MEM media containing 10% of fetal calf serum were seeded in 96-well microtiter plates at 2 x 10^3cells/well, and precultured in an incubator with 5% of CO2 at 37°C for 24 hours. Then, each compound diluted appropriately with the media was added into the well at 50 µl/well. At this time, a final concentration of each compound is up to 100 µmol/l or 1 µmol/l. The cells were cultured in the incubator with 5% of CO2 at 37°C for additional 72 hours. At 5 hours before the culturing was terminated, MTT [3-(4,5-dimethylthiazol-2-yl)-2,5-[…] bromide] dissolved in the medium at a final concentration of 1 mg/mL was added into the well at 50 µl/well. After the culturing, dimethyl sulfoxide was added to the well at 150 µl/well, and the plate was vigorously stirred using a plate mixer to dissolve crystals of MTT-formazan completely. […]

| IC50 | SMILES |
| --- | --- |
| 200 nM | CCC(C)C1C(=O)OC1C(=O)NC1CC1CC(NC(=O)C(C)NC(=O)OC(C)(C)C)C(=O)OCC(=O)c1ccccc1 (stereo not shown) [Compound 18] |
| 190 nM | CCC(C)C1C(=O)OC1C(=O)NC1CC1CC(NC(=O)C(C)NC(=O)OC(C)(C)C)C(=O)NCc1ccccc1 (stereo not shown) [Compound 19] |
| 93 nM | CCC(C)C1C(=O)OC1C(=O)NC1CC1CC(NC(=O)C(C)NC(=O)OCc1ccccc1)C(=O)OCc1ccccc1 (stereo not shown) [Compound 28] |
| 64 nM | CCC(C)C1C(=O)OC1C(=O)NC1CC1CC(NC(=O)C(C)NC(=O)NCc1ccccc1)C(=O)OCc1ccccc1 (stereo not shown) [Compound 30] |
| 113 nM | CCC(C)C1C(=O)OC1C(=O)NC1CC1CC(NC(=O)C(C)NC(=O)NC(C)C)C(=O)OCc1ccccc1 (stereo not shown) [Compound 31] |
| 433 nM | CCC(C)C1C(=O)OC1C(=O)NC1CC1CC(NC(=O)C(C)NC(=S)NCc1ccccc1)C(=O)OCc1ccccc1 (stereo not shown) [Compound 32] |
| 76 nM | CCC(C)C1C(=O)OC1C(=O)NC1CC1CC(NC(=O)C(C)NC(=O)c1ccccc1)C(=O)OCc1ccccc1 (stereo not shown) [Compound 33] |
| 1200 nM | CCC(C)C1C(=O)OC1C(=O)NC1CC1CC(NC(=O)C(C)NC=O)C(=O)OCc1ccccc1 (stereo not shown) [Compound 34] |
| 93 nM | CCC(C)C1C(=O)OC1C(=O)NC1CC1CC(NC(=O)C(C)NC(C)=O)C(=O)OCc1ccccc1 (stereo not shown) [Compound 35] |
| 62 nM | CCC(C)C1C(=O)OC1C(=O)NC1CC1CC(NC(=O)C(C)NC(=O)c1cnccn1)C(=O)OCc1ccccc1 (stereo not shown) [Compound 36] |
| 5700 nM | CCC(C)C1C(=O)OC1C(=O)NC1CC1CC(NC(=O)C(C)NC(=O)CO[Si](C)(C)C(C)(C)C)C(=O)OCc1ccccc1 (stereo not shown) [Compound 37] |

The remaining lines, values behind:

| SMILES | IC50 |
| --- | --- |
| CCC(C)C1C(=O)OC1C(=O)NC1CC1CC(NC(=O)C(C)N)C(=O)NCc1ccccc1 (stereo not shown) [Compound 20] | 57 nM |
| CCC(C)C1C(=O)OC1C(=O)NC1CC1CC(NC(=O)C(C)N)C(=O)NCc1cccc2ccccc12 (stereo not shown) [Compound 22] | < 41 nM |
| CCC(C)C1C(=O)OC1C(=O)NC1CC1CC(NC(=O)C(C)NC(=O)OC(C)(C)C)C(=O)N1CCOCC1 (stereo not shown) [Compound 26] | 160 nM |
